Reference: patent US7579180B2, “Beta secretase polypeptides” (Amgen Inc., priority 1999, dated 2009)

Key:
[1] = molecular target: T1, human beta-secretase-Fc fusion (Homo sapiens, UniProt P56817); assay: Beta-secretase activity assay: cleavage of DNP-labeled APP peptides, HPLC; format: biochemical; conditions: peptide substrate 20 μM, pH 5.0, about 6 hours, room temperature; FIG. 11
T1 construct: A plasmid containing cDNA encoding amino acids 1-460 of beta-secretase fused to the Fc portion of human IgG; made in house; host or cells: human embryonic kidney 293T cells, stably transfected; purified from conditioned medium on protein A
T1 sequence (P56817 with tags, fused parts or gaps limits assumed): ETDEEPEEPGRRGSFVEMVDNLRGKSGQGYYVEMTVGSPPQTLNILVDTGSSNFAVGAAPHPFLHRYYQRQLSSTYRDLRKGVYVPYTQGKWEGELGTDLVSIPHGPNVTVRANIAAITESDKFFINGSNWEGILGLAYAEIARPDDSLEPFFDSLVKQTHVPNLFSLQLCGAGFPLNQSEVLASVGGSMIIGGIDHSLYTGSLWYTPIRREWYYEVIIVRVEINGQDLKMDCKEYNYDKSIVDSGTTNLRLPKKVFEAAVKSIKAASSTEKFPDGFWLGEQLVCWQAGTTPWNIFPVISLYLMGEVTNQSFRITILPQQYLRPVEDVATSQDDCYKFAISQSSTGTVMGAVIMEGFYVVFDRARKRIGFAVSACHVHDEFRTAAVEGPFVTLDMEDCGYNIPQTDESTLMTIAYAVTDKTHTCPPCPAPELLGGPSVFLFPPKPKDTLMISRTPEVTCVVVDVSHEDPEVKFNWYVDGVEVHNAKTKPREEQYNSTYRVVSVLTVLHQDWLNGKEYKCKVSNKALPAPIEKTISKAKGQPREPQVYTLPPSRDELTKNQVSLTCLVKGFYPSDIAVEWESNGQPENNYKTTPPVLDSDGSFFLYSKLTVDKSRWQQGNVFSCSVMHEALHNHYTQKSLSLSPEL
Procedure: FIG. 11 is a graph depicting the ability of human beta-secretase-Fc fusion to cleave various APP peptides. The X-axis is the amount of enzyme in the reaction mixture and the Y-axis is the amount of cleavage (denoted as pmol product formed) of each of three substrate peptides. “Sw” refers to the APP peptide with the Swedish mutation; “Wt” refers to wild type APP peptide; and “MV” refers to a mutated APP peptide.
Recombinant native as well as mutant beta secretase polypeptides were assayed for activity by measuring the ability of the molecule to cleave various A-beta peptides.
Each assay was conducted as follows. […] Quenched reactions were analyzed by HPLC on a 5 μm, C18 reversed-phase column (Sephasil Peptide, 4.6×100 mm; Amersham Pharmacia Biotech, Piscataway, N.J.) using first a linear gradient of 18-31.5 percent acetonitrile in 0.1 percent TFA over 40 minutes, then 31.5-81 percent acetonitrile for 1 minute, then 81 percent acetonitrile for 4 minutes, and then returning to 18-percent acetonitrile for several minutes to reequilibrate the column. […] Proteolysis of the Sw and WT octapeptides was evaluated using a linear gradient of 27-37.8 percent acetonitrile over 24 minutes on the same column.
Both product and substrate were monitored by absorbance at 360 nm. […]
The concentration of standard was determined from the extinction coefficient of DNP (e365nm=16 mM^−1cm^−1). […]

[2] = system: 293T-APPsw101 cell line; assay: Assay for total beta amyloid peptide in medium of transfected cells; format: cell-based, human; conditions: Single Clone; diluted 1:10 into pCMVi vector DNA; average of duplicate transfections
Procedure: (§1) A duplicate of each master cDNA 96 well plate was prepared. Each well of the duplicate plate contained about 75 microliters of Optimem I medium (Life Technologies Inc, Gaithersburg, Md.) and about 300 ng of cDNA library. About 75 microliters of a mixture of 12 microliters DMRIE-C Lipid per ml of Optimem I medium (Life Technologies Inc., Gaithersburg, Md.) was added to each well of the 96 well plate using a Multipette (Sagian Inc. Indianapolis, Ind.) robotic pipettor. The DMRIE C was allowed to complex for about 30 minutes. Meanwhile, the media was removed from a 96 well dish in which each well had been plated with about 15,000 cells/well of the 293T-APPsw 101 cell line two days before. About 125 microliters of the DNA/Lipid complex was added to each well of cells. The cells containing the DNA/lipid mixture were then incubated at 37 degrees C., 5 percent CO2 for about five hours. After incubation, 125 μl Optimem I supplemented with 20 percent FBS and 2× Penicillin/Streptomycin (0.1 unit/ml Penicillin, 0.1 μg/ml Streptomycin) (Life Technologies Inc., Gaithersburg, Md.) was added to stop the transfection. […] The medium from each well was then harvested, diluted 1:1 in Superblock (Pierce Inc., Rockford, Ill.), stamped into pre-coated ELISA plates and analyzed for the presence of A-beta as described below. […]

[3] = system: 293T-APPsw101 cell line; assay: Assay for the 42 amino acid form of A-beta in medium of transfected cells; format: cell-based, human; conditions: Single Clone
Procedure: as §1

Substance: EVKMDAEF [Wt]
- cleavage of substrate peptide (pmol product formed), preference by the enzyme [1]: preferred over the methionine to valine mutant (MV) substrate

Substance: EVNLDAEF [Sw]
- cleavage of substrate peptide (pmol product formed), preference by the enzyme [1]: clearly preferred by the enzyme over the wild type (Wt) substrate

Substance: Single Clone (β-Secretase): single cDNA clone from pool A-11 encoding human beta-secretase (SEQ ID NO:1)
- Total [2]: 295,438 total Europium counts
- A-beta 42/Total [3]: 1.1
- A-beta 42 ([3]; diluted 1:10 into pCMVi vector DNA, average of duplicate transfections): 327,505 total Europium counts
